Each molecule was assayed on Cell Necrosis (assay: Cell necrosis assay / cell viability assay (necrosis inhibitor activity)). Settings: necrosis inhibitor activity; EC data for 14-191 extrapolated; read-out: EC50.
Type: cell-based

SMILES	EC50 [nM]
O=C(N1CC(Oc2cc(F)ccc2F)C1)N1N=CCC1c1ccccc1 (stereo not shown) [Compound 128, (3-(2,5-difluorophenoxy)azetidin-1-yl)(5-phenyl-4,5-dihydro-1H-pyrazol-1-yl)methanone]	1 to 1000
C[C@H]1CN(c2ncc(F)cn2)CCN1C(=O)N1N=CC[C@@H]1c1cccc(F)c1 [Compound 117B, ((R)-5-(3-fluorophenyl)-4,5-dihydro-1H-pyrazol-1-yl)((S)-4-(5-fluoropyrimidin-2-yl)-2-methylpiperazin-1-yl)methanone]	1 to 1000
O=C(N1CC(Oc2ccc(F)c(F)c2)C1)N1N=CCC1c1ccccc1 (stereo not shown) [Compound 66, (3-(3,4-difluorophenoxy)azetidin-1-yl)(5-phenyl-4,5-dihydro-1H-pyrazol-1-yl)methanone]	1 to 1000
O=C(N1CC(Cc2ccc(F)cc2F)C1)N1N=CCC1c1ccccc1 (stereo not shown) [Compound 50, (3-(2,4-difluorobenzyl)azetidin-1-yl)(5-phenyl-4,5-dihydro-1H-pyrazol-1-yl)methanone]	1 to 1000
NC(=O)c1cc(OC2CN(C(=O)N3N=CCC3c3cc(F)cc(F)c3)C2)ccc1F (stereo not shown) [Compound 159]	1 to 1000
O=C(N1CC[C@H](Oc2ccccc2)C1)N1N=CCC1c1ccccc1 (stereo partly drawn) [Compound 27B, ((S)-3-phenoxypyrrolidin-1-yl)(S-phenyl-4,5-dihydro-1H-pyrazol-1-yl)methanone]	1 to 1000
O=C(N1CC(Oc2ccc(=O)[nH]c2)C1)N1N=CCC1c1cc(F)cc(F)c1 (stereo not shown) [Compound 186]	1 to 1000
O=C(N1CC(Oc2ccc(F)cc2F)C1)N1N=CCC1c1cccc(F)c1 (stereo not shown) [Compound 75, (3-(2,4-difluorophenoxy)azetidin-1-yl)(5-(3-fluorophenyl)-4,5-dihydro-1H-pyrazol-1-yl)methanone]	1 to 1000
C[C@H]1CN(c2ncc(F)cn2)CCN1C(=O)N1N=CCC1c1cccc(F)c1 (stereo partly drawn) [Compound 117A, ((S)-5-(3-fluorophenyl)-4,5-dihydro-H-pyrazol-1-yl)((S)-4-(5-fluoropyrimidin-2-yl)-2-methylpiperazin-1-yl)methanone]	1 to 1000
N#Cc1cccc(OC2CN(C(=O)N3N=CCC3c3cc(F)cc(F)c3)C2)c1 (stereo not shown) [Compound 71, 3-((1-(5-(3,5-difluorophenyl)-4,5-dihydro-1H-pyrazole-1-carbonyl)azetidin-3-yl)oxy)benzonitrile]	1 to 1000
O=C(N1CCN(c2ncc(F)cn2)CC1)N1N=CCC1c1cccc(F)c1 (stereo not shown) [Compound 100, (5-(3-fluorophenyl)-4,5-dihydro-1H-pyrazol-1-yl)(4-(5-fluoropyrimidin-2-yl)piperazin-1-yl)methanone]	1 to 1000
C[C@H]1CN(c2ccc(F)cn2)CCN1C(=O)N1N=CCC1c1ccccc1 (stereo partly drawn) [Compound 115A, ((S)-4-(5-fluoropyridin-2-yl)-2-methylpiperazin-1-yl)(5-phenyl-4,5-dihydro-1H-pyrazol-1-yl)methanone]	1 to 1000
O=C(N1CC(Oc2ccc(O)cc2)C1)N1N=CCC1c1ccccc1 (stereo not shown) [Compound 70, (3-(4-hydroxyphenoxy)azetidin-1-yl)(5-phenyl-4,5-dihydro-1H-pyrazol-1-yl)methanone]	1000 to 10000
O=C(N1CC(Oc2ccc(F)cc2)C1)N1N=CC[C@H]1c1cc(F)cc(F)c1 [Compound 143]	1 to 1000

Same assay, conditions: necrosis inhibitor activity; compounds outside 14-191; read-out: EC50

SMILES	EC50 [nM]
N#Cc1cc(F)cc([C@@H]2CC=NN2C(=O)N2CC(Oc3ccc4c(c3)NC(=O)CO4)C2)c1 [Compound 198, (S)-3-fluoro-5-(1-(3-((3-oxo-3,4-dihydro-2H-benzo[b][1,4]oxazin-6-yl)oxy)azetidine-1-carbonyl)-4,5-dihydro-1H-pyrazol-5-yl)benzonitrile]	1 to 1000
Nc1ccc(F)c(OC2CN(C(=O)N3N=CC[C@H]3c3cc(F)cc(F)c3)C2)n1 [Compound 251, (S)-(3-((6-amino-3-fluoropyridin-2-yl)oxy)azetidin-1-yl)(5-(3,5-difluorophenyl)-4,5-dihydro-1H-pyrazol-1-yl)methanone]	1 to 1000
CC1CCCCN1C(=O)N1N=CCC1c1ccccc1 (stereo not shown) [Compound 8, (2-methylpiperidin-1-yl)(5-phenyl-4,5-dihydro-1H-pyrazol-1-yl)methanone]	1000 to 10000
O=C(N1CC(Oc2ccc(F)cc2F)C1)N1N=CCC1c1cncc(F)c1 (stereo not shown) [Compound 213, (3-(2,4-difluorophenoxy)114zetidine-1-yl)(5-(5-fluoropyridin-3-yl)-4,5-dihydro-1H-pyrazol-1-yl)methanone]	1 to 1000
N#Cc1ccnc(OC2CN(C(=O)N3N=CC[C@H]3c3cc(F)cc(F)c3)C2)n1 [Compound 264, (S)-2-((1-(5-(3,5-difluorophenyl)-4,5-dihydro-1H-pyrazole-1-carbonyl)azetidin-3-yd)oxy)pyrimidine-4-carbonitrile]	1 to 1000
O=C(N1CC(=Cc2cc3[nH][nH]c(=O)c3cc2F)C1)N1N=CC[C@H]1c1cc(F)cc(F)c1 [Compound 286, (S)-6-((1-(5-(3,5-difluorophenyl)-4,5-dihydro-1H-pyrazole-1-carbonyl)azetidin-3-ylidene)methyl)-5-fluoro-1H-315-indazol-3-one]	1 to 1000
N#Cc1cc(OC2CN(C(=O)N3N=CC[C@H]3c3cc(F)cc(F)c3)C2)ccc1F [Compound 236, (S)-5-((1-(5-(3,5-difluorophenyl)-4,5-dihydro-1H-pyrazole-1-carbonyl)azetidin-3-yl)oxy)-2-fluorobenzonitrile]	1 to 1000
CNc1nc(OC2CN(C(=O)N3N=CC[C@H]3c3cc(F)cc(F)c3)C2)c(F)cc1F [Compound 262, (S)-(3-((3,5-difluoro-6-(methylamino)pyridin-2-yl)oxy)azetidin-1-yl)(5-(3,5-difluorophenyl)-4,5-dihydro-1H-pyrazol-1-yl)methanone]	1 to 1000
O=C(Nc1nc(N2CCN(C(=O)N3N=CC[C@H]3c3cc(F)cc(F)c3)CC2)ncc1F)C1CCC1 [Compound 328, (S)—N-(2-(4-(5-(3,5-difluorophenyl)-4,5-dihydro-1H-pyrazole-1-carbonyl)piperazin-1-yl)-5-fluoropyrimidin-4-yl)cyclobutanecarboxamide]	1 to 1000
CNC(=O)c1cc2sc(OC3CN(C(=O)N4N=CC[C@H]4c4cc(F)cc(F)c4)C3)nc2[nH]1 [Compound 258, (S)-2-((1-(5-(3,5-difluorophenyl)-4,5-dihydro-1H-pyrazole-1-carbonyl)azetidin-3-yl)oxy)-N-methyl-4H-pyrrolo[2,3-d]thiazole-5-carboxamide]	1 to 1000
N#Cc1ccnc(O[C@@H]2CCN(C(=O)N3N=CC[C@H]3c3cc(F)cc(F)c3)C2)c1 [Compound 336, 2-(((R)-1-((S)-5-(3,5-difluorophenyl)-4,5-dihydro-1H-pyrazole-1-carbonyl)pyrrolidin-3-yl)oxy)isonicotinonitrile]	1 to 1000
O=C(N1CC(Oc2ccc(-c3ncc[nH]3)cc2)C1)N1N=CC[C@H]1c1cc(F)cc(F)c1 [Compound 219, (S)-(3-(4-(1H-imidazol-2-yl)phenoxy)azetidin-1-yl)(5-(3,5-difluorophenyl)-4,5-dihydro-1H-pyrazol-1-yl)methanone]	1 to 1000
O=C1Cc2ccc(OC3CN(C(=O)N4N=CCC4c4cc(F)cc(F)c4)C3)cc2N1 (stereo not shown) [Compound 224, 6-((1-(5-(3,5-difluorophenyl)-4,5-dihydro-1H-pyrazole-1-carbonyl)azetidin-3-yl)oxy)indolin-2-one]	1 to 1000
O=C(N1CC(Oc2ccc3occc3c2)C1)N1N=CCC1c1cc(F)cc(F)c1 (stereo not shown) [Compound 216, (3-(benzofuran-5-yloxy)115zetidine-1-yl)(5-(3,5-difluorophenyl)-4,5-dihydro-1H-pyrazol-1-yl)methanone]	1 to 1000
Nc1ccn(CC2CN(C(=O)N3N=CC[C@H]3c3cc(F)cc(F)c3)C2)c1 [Compound 298, (S)-(3-((3-amino-H-pyrrol-1-yl)methyl)azetidin-1-yl)(5-(3,5-difluorophenyl)-4,5-dihydro-1H-pyrazol-1-yl)methanone]	1 to 1000
O=C(N1CC(=Cc2ccc(F)cc2)C1)N1N=CCC1c1cncc(F)c1 (stereo not shown) [Compound 309, (3-(4-fluorobenzylidene)azetidin-1-yl)(5-(5-fluoropyridin-3-yl)-4,5-dihydro-1H-pyrazol-1-yl)methanone]	1 to 1000
O=C(N1CC(Oc2ccc(OCc3ccccc3)cc2)C1)N1N=CC[C@H]1c1cc(F)cc(F)c1 [Compound 214, (S)-(3-(4-(benzyloxy)phenoxy)zetidine-1-yl)(5-(3,5-difluorophenyl)-4,5-dihydro-1H-pyrazol-1-yl)methanone]	1 to 1000
CNC(=O)c1nc(OC2CN(C(=O)N3N=CC[C@H]3c3cc(F)cc(F)c3)C2)sc1Cl [Compound 273, (S)-5-chloro-2-((1-(5-(3,5-difluorophenyl)-4,5-dihydro-1H-pyrazole-1-carbonyl)azetidin-3-yl)oxy)-N-methylthiazole-4-carboxamide]	1 to 1000
O=C(N1CC(CN2Cc3cn[nH]c3C2)C1)N1N=CC[C@H]1c1cc(F)cc(F)c1 [Compound 375, (S)-(5-(3,5-difluorophenyl)-4,5-dihydro-1H-pyrazol-1-yl)(3-((4,6-dihydropyrrolo[3,4-c]pyrazol-5(1H)-yl)methyl)azetidin-1-yl)methanone]	1 to 1000
NC(=O)c1ccc(F)cc1C=C1CN(C(=O)N2N=CC[C@H]2c2cc(F)cc(F)c2)C1 [Compound 320, (S)-2-((1-(5-(3,5-difluorophenyl)-4,5-dihydro-1H-pyrazole-1-carbonyl)azetidin-3-ylidene)methyl)-4-fluorobenzamide]	1 to 1000
N#Cc1ccc(F)c(OC2CN(C(=O)N3N=CC[C@H]3c3cc(F)cc(F)c3)C2)c1 [Compound 235, (S)-3-((1-(5-(3,5-difluorophenyl)-4,5-dihydro-1H-pyrazole-1-carbonyl)azetidin-3-yl)oxy)-4-fluorobenzonitrile]	1 to 1000
N#Cc1cncc(O[C@@H]2CCN(C(=O)N3N=CC[C@H]3c3cc(F)cc(F)c3)C2)n1 [Compound 335, 6-(((R)-1-((S)-5-(3,5-difluorophenyl)-4,5-dihydro-1H-pyrazole-1-carbonyl)pyrrolidin-3-yl)oxy)pyrazine-2-carbonitrile]	1 to 1000
N#Cc1cc(F)ccc1C=C1CN(C(=O)N2N=CC[C@H]2c2cc(F)cc(F)c2)C1 [Compound 321, (S)-2-((1-(5-(3,5-difluorophenyl)-4,5-dihydro-1H-pyrazole-1-carbonyl)azetidin-3-ylidene)methyl)-5-fluorobenzonitrile]	1 to 1000

Source: patent US12662469B2 (SIRONAX LTD, priority 2018, dated 2026)
